Experimental data: paper PMC4515785 (Journal of Medicinal Chemistry, 2015)
Marks after values point to notes of the source that are not given here.

Key:
[1] = tested on: L. major promastigotes; experiment: Leishmania major promastigote assay; format: cell-based; details: for EC50: read-out: L. major EC50 Promast
[2] = tested on: T. cruzi Tulahuen strain expressing β-galactosidase; experiment: Trypanosoma cruzi intracellular amastigote assay in 3T3 cells; format: cell-based; details: for EC50: read-out: T. cruzi EC50; for EC50 / T. cruzi EC50: intracellular amastigotes in 3T3 cells, 96 h
[3] = tested on: HepG2 cells; experiment: HepG2 toxicity assay; format: cell-based; details: 48 h, MTT
[4] = tested on: P. falciparum D6; experiment: Plasmodium falciparum SYBR Green fluorescence; format: cell-based; details: D6, drug sensitive strain; for EC50: read-out: P. falciparum D6 EC50
[5] = plasma protein binding; format: in vitro ADME
[6] = Human liver microsomes intrinsic clearance; format: in vitro ADME
[7] = tested on: T. brucei; details: read-out: T. brucei EC50; previously reported quinazoline analogs; cited from earlier work
[8] = male rat hepatocytes intrinsic clearance; format: in vitro ADME

In the case of `O=S(=O)(c1ccc(-c2ccc3ccnc(Nc4ccc(OCc5ccccc5)c(Cl)c4)c3c2)cc1)N1CCOCC1` [compound 55, N-(4-(Benzyloxy)-3-chlorophenyl)-7-(4-(morpholinosulfonyl)phenyl)isoquinolin-1-amine], the “L. major EC50 Promast” value [1] is reported as “complete loss in activity”.
For “N-(3-Chloro-4-((3-fluorobenzyl)oxy)phenyl)-6-(4-((4-methylpiperazin-1-yl)sulfonyl)phenyl)thieno[3,2-d]pyrimidin-4-amine [compound 89]”, the EC50 [2] was 5.5 µM, the EC50 [1] was 3.4 µM and the “HepG2 TC50” value [3] was over 15 µM. The EC50 [4] was 0.021 µM.
For `CN1CCCN(S(=O)(=O)c2ccc(-c3ccc4ncc(C#N)c(Nc5ccc(OCc6cccc(F)c6)c(Cl)c5)c4c3)cc2)CC1` [compound 83, 4-((3-Chloro-4-((3-fluorobenzyl)oxy)phenyl)amino)-6-(4-((4-methyl-1,4-diazepan-1-yl)sulfonyl)phenyl)quinoline-3-carbonitrile], the “fold increase in T. cruzi potency over matched des-fluoro analog” value ([2]; 83 vs 84) was 10 fold, the “fold improvement in T. cruzi potency over matched quinazoline analog 4” value ([2]; vs 4) was 5 fold and the “plasma protein binding (% free)” value [5] was under 1 % free. For the same compound, the microsomal CLint [6] was 152 µL/min/mg.
In the case of `CN1CCCN(S(=O)(=O)c2ccc(-c3ccc4c(Nc5ccc(OCc6cccc(F)c6)c(Cl)c5)ccnc4c3)cc2)CC1` [compound 52, N-(3-Chloro-4-((3-fluorobenzyl)oxy)phenyl)-7-(4-((4-methyl-1,4-diazepan-1-yl)sulfonyl)phenyl)quinolin-4-amine], the “T. cruzi EC50” value [2] is reported as “submicromolar potency”.
In the case of “N-(3-Chloro-4-((3-fluorobenzyl)oxy)phenyl)-6-(4-((4-methyl-1,4-diazepan-1-yl)sulfonyl)phenyl)thieno[2,3-d]pyrimidin-4-amine [compound 92]”, the EC50 [2] is reported as 15 µM and the “HepG2 TC50” value [3] is reported as over 15 µM.
For `CN1CCCN(S(=O)(=O)c2ccc(-c3ccc4ncnc(Nc5ccc(OCc6cccc(F)c6)c(Cl)c5)c4c3)cc2)CC1` [compound 4], the EC50 [7] is given as 0.81 µM.
For `CN1CCN(S(=O)(=O)c2ccc(-c3ccc4ncnc(Nc5ccc(OCc6cccc(F)c6)c(Cl)c5)c4c3)cc2)CC1` [compound 5], the EC50 [7] is listed as 0.53 µM.
For `O=S(=O)(c1ccc(-c2ccc3nccc(Nc4ccc(OCc5ccccc5)c(Cl)c4)c3c2)cc1)N1CCOCC1` [compound 47, N-(4-(Benzyloxy)-3-chlorophenyl)-6-(4-(morpholinosulfonyl)phenyl)quinolin-4-amine], the “plasma protein binding (% free)” value [5] was under 1 % free and the microsomal CLint [6] was 78.9 µL/min/mg.
With “N-(3-Chloro-4-((3-fluorobenzyl)oxy)phenyl)-6-(4-((4-methyl-1,4-diazepan-1-yl)sulfonyl)phenyl)thieno[3,2-d]pyrimidin-4-amine [compound 91]” the EC50 [2] was over 50 µM and the “HepG2 TC50” value [3] was over 15 µM.
With “N-(3-Chloro-4-((3-fluorobenzyl)oxy)phenyl)-6-(4-((4-methylpiperazin-1-yl)sulfonyl)phenyl)thieno[2,3-d]pyrimidin-4-amine [compound 90]” the EC50 [2] was 48 µM, the EC50 [1] was over 15 µM and the “HepG2 TC50” value [3] was over 15 µM. For the same compound, the EC50 [4] was 0.043 µM.
With `CN1CCN(S(=O)(=O)c2ccc(-c3ccc4c(Nc5ccc(OCc6cccc(F)c6)c(Cl)c5)ccnc4c3)cc2)CC1` [compound 50, N-(3-Chloro-4-((3-fluorobenzyl)oxy)phenyl)-7-(4-((4-methylpiperazin-1-yl)sulfonyl)phenyl)quinolin-4-amine] the “T. cruzi EC50” value [2] was “submicromolar potency”, the “plasma protein binding (% free)” value [5] was under 1 % free and the microsomal CLint [6] was 143 µL/min/mg.
In the case of `CN1CCN(S(=O)(=O)c2ccc(-c3ccc4nccc(Nc5ccc(OCc6cccc(F)c6)c(Cl)c5)c4c3)cc2)CC1` [compound 49, N-(3-Chloro-4-((3-fluorobenzyl)oxy)phenyl)-6-(4-((4-methylpiperazin-1-yl)sulfonyl)phenyl)quinolin-4-amine], the “P. falciparum D6 EC50” value [4] is reported as “complete loss in activity”.
In the case of `CN1CCCN(S(=O)(=O)c2ccc(-c3ccc4c(Nc5ccc(OCc6cccc(F)c6)c(Cl)c5)cnnc4c3)cc2)CC1` [compound 68, N-(3-Chloro-4-((3-fluorobenzyl)oxy)phenyl)-7-(4-((4-methyl-1,4-diazepan-1-yl)sulfonyl)phenyl)cinnolin-4-amine], the “plasma protein binding (% free)” value [5] is reported as under 1 % free and the microsomal CLint [6] is reported as 99.3 µL/min/mg.
With “N-(4-(Benzyloxy)-3-chlorophenyl)-6-(4-(morpholinosulfonyl)phenyl)thieno[3,2-d]pyrimidin-4-amine [compound 87]” the EC50 [2] was over 50 µM, the EC50 [1] was over 3 µM and the “HepG2 TC50” value [3] was over 5 µM. The EC50 [4] was 0.62 µM.
With `CN1CCCN(S(=O)(=O)c2ccc(-c3ccc4c(Nc5ccc(OCc6cccc(F)c6)c(Cl)c5)nncc4c3)cc2)CC1` [compound 76, N-(3-Chloro-4-((3-fluorobenzyl)oxy)phenyl)-6-(4-((4-methyl-1,4-diazepan-1-yl)sulfonyl)phenyl)phthalazin-1-amine] the “P. falciparum D6 EC50” value [4] was “equipotent to 5”.
For `Fc1cccc(COc2ccc(Nc3ncnc4ccc(-c5cccc(N6CCOCC6)c5)cc34)cc2Cl)c1` [compound 1], the hepatocyte CLint [8] was 44.5 µL/min/1e6 cells, the “plasma protein binding (% free)” value [5] was under 1 % free and the microsomal CLint [6] was 63 µL/min/mg.
With “N-(3-Chloro-4-((3-fluorobenzyl)oxy)phenyl)-6-(3-morpholinophenyl)thieno[2,3-d]pyrimidin-4-amine [compound 86]” the EC50 [2] was 2.2 µM, the EC50 [1] was over 15 µM and the “HepG2 TC50” value [3] was over 15 µM. It also gave an EC50 [4] of 0.52 µM.
For `O=S(=O)(c1ccc(-c2ccc3ncnc(Nc4ccc(OCc5ccccc5)c(Cl)c4)c3c2)cc1)N1CCOCC1` [compound 3], the “T. cruzi % inh at 10 μM” value ([2]; 10 μM) was “(9.5)* %”.
With `CN1CCCN(S(=O)(=O)c2ccc(-c3ccc4ccnc(Nc5ccc(OCc6cccc(F)c6)c(Cl)c5)c4c3)cc2)CC1` [compound 59, N-(3-Chloro-4-((3-fluorobenzyl)oxy)phenyl)-7-(4-((4-methyl-1,4-diazepan-1-yl)sulfonyl)phenyl)isoquinolin-1-amine] the “fold less potent against T. cruzi” value ([2]; compared with the quinazoline 4) was 10 fold.
For `CN1CCCN(S(=O)(=O)c2ccc(-c3ccc4nccc(Nc5ccc(OCc6cccc(F)c6)c(Cl)c5)c4c3)cc2)CC1` [compound 51, N-(3-Chloro-4-((3-fluorobenzyl)oxy)phenyl)-6-(4-((4-methyl-1,4-diazepan-1-yl)sulfonyl)phenyl)quinolin-4-amine], the “T. cruzi EC50” value [2] was “submicromolar potency”.
With “N-(4-(Benzyloxy)-3-chlorophenyl)-6-(4-(morpholinosulfonyl)phenyl)thieno[2,3-d]pyrimidin-4-amine [compound 88]” the EC50 [2] was over 50 µM, the EC50 [1] was over 15 µM and the “HepG2 TC50” value [3] was over 15 µM. It also gave an EC50 [4] of 0.22 µM.
In the case of “N-(3-Chloro-4-((3-fluorobenzyl)oxy)phenyl)-6-(3-morpholinophenyl)thieno[3,2-d]pyrimidin-4-amine [compound 85]”, the EC50 [2] is reported as over 50 µM, the EC50 [1] is reported as over 15 µM and the “HepG2 TC50” value [3] is reported as over 15 µM. The EC50 [4] was 0.86 µM.
